The target of assay [1] is T1, Polyadenylate-binding protein 1 (Homo sapiens, UniProt P11940). Nature of the assay: MLLE domain peptide-binding blockers, IC50 – biochemical, fluorescence polarization, FITC-PAM2 peptide, dose response (AID 602259). The settings on record: read-out: IC50_Mean. The class given is functional.
Assay [2] deals with T1, Polyadenylate-binding protein 1. Nature of the assay: MLLE binding blockers, Cy5 peptide tracer – biochemical, fluorescence polarization, Cy5-PAM2 peptide, secondary, miRNA deadenylation inhibitor project, dose response (AID 602260). The format is functional. The settings on record: read-out: IC50_Mean.
Assay [3] has as its target Induced myeloid leukemia cell differentiation protein Mcl-1 (Homo sapiens, UniProt Q07820). The format is functional.
A short description of assay [4]: IC50 of Artemis nuclease activity blockers – biochemical, fluorescence intensity, dose response (AID 720701).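 Also: Artemis endonuclease enzyme.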 The class given is functional.
For assay [5], the target named is T2, Rac GTPase-activating protein 1 (Homo sapiens, UniProt Q9H0H5).
T2 sequence (Q9H0H5 whole entry): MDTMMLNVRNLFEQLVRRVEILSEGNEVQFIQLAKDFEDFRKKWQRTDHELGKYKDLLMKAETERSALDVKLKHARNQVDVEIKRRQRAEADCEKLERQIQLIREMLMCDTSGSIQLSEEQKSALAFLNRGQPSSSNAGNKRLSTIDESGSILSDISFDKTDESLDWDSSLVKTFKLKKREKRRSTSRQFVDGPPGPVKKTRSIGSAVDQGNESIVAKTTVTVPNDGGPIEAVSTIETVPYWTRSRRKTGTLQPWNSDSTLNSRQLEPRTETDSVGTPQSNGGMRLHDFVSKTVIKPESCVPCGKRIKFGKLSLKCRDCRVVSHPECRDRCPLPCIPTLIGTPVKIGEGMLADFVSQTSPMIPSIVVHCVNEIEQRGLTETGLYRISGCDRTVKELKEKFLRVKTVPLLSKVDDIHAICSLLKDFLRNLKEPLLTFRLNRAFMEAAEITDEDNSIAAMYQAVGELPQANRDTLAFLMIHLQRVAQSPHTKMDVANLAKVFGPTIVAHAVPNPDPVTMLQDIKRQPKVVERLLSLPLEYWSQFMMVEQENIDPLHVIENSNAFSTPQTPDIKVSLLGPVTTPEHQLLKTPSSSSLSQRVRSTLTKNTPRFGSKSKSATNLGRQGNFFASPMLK
Nature of the assay: blockers of MgcRacGAP-driven Rac1 GTP hydrolysis – biochemical, ADP Hunter fluorescence, primary and confirmatory, confirmation (AID 624330). The class given is functional.

Assay [6] deals with Glutathione-S-transferase (Schistosoma japonicum, UniProt Q26513). Nature of the assay: GST-antibody interaction or FRET quenching – biochemical, TR-FRET, artefact control for Vif-APOBEC3G degradation inhibitor project, dose response (AID 1117362). The format is functional.
Chain of Glutathione-S-transferase (Q26513 whole entry, the tested form may be a part): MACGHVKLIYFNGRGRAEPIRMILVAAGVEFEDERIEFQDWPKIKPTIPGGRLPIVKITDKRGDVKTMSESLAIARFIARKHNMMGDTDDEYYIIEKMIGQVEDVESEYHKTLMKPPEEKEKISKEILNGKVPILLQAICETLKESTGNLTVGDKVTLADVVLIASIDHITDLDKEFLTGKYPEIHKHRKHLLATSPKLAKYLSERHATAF
Assay [7] is described as follows: blockers of HIV-1 envelope-mediated cell-cell fusion – cherry-pick, dose response (AID 652057). The class given is functional, cell-based.
A short description of assay [8]: inhibition of Env-driven cell fusion – HIV entry, plate reader, dry powder, dose response (AID 687023). The format is functional, cell-based.
The nature of assay [9]: HIV-1 AD8 envelope cell-cell fusion blockers – cherry-pick, dose response (AID 652062).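 Also: luciferase signal from cell-cell fusion driven by HIV-1 clade B AD8 Env; potency is for inhibitors of fusion seen as a drop in luminescence.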 The class given is functional, cell-based.
Assay [10] is described as follows: blockers of HIV-1 ZM109 envelope-driven cell-cell fusion – HeLa effector, CEM target cells, luciferase, cherry-pick, dose response (AID 652058).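 Also: luciferase signal from HIV-1 Env mediated cell-cell fusion of effector and target cells.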 The format is functional, cell-based.
The target of assay [11] is T3, NAD-dependent protein deacylase sirtuin-5, mitochondrial (Homo sapiens, UniProt Q9NXA8). The experiment in a line: sirtuin-5 deacylation blockers, concentration series – biochemical, fluorescence imaging, cherry-pick, set 5, dose response (AID 720591).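 Also: desuccinylation of succinyl peptide AMC substrate read as fluorescence after trypsin release; potency of inhibitors that lower fluorescence and may act on trypsin instead.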
T3 sequence (Q9NXA8 whole entry): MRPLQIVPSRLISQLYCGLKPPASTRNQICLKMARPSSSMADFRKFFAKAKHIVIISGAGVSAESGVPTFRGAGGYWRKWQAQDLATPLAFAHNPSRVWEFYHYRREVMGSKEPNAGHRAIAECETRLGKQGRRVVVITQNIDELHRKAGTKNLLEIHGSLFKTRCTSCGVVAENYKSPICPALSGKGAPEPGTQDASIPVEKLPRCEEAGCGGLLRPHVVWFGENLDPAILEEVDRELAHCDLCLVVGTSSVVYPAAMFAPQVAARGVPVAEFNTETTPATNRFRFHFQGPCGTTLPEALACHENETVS
The next assay has as its target Cytochrome P450 2D6 (Homo sapiens, UniProt P10635).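 Also: CYP2D6 member of a cytochrome P450 panel assay.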
A short description of assay [12]: Late stage counterscreen for inhibitors of Trypanosoma brucei methionyl tRNA synthetase (MetRS): Luminescence-based cell-based high throughput dose response assay to identify compounds that are cytotoxic to Jurkat human T lymphocyte cells. The class given is functional.
Assay [13] deals with T4, Methionyl-tRNA synthetase, putative (Trypanosoma brucei brucei, UniProt Q38C91).
T4 sequence (Q38C91 whole entry): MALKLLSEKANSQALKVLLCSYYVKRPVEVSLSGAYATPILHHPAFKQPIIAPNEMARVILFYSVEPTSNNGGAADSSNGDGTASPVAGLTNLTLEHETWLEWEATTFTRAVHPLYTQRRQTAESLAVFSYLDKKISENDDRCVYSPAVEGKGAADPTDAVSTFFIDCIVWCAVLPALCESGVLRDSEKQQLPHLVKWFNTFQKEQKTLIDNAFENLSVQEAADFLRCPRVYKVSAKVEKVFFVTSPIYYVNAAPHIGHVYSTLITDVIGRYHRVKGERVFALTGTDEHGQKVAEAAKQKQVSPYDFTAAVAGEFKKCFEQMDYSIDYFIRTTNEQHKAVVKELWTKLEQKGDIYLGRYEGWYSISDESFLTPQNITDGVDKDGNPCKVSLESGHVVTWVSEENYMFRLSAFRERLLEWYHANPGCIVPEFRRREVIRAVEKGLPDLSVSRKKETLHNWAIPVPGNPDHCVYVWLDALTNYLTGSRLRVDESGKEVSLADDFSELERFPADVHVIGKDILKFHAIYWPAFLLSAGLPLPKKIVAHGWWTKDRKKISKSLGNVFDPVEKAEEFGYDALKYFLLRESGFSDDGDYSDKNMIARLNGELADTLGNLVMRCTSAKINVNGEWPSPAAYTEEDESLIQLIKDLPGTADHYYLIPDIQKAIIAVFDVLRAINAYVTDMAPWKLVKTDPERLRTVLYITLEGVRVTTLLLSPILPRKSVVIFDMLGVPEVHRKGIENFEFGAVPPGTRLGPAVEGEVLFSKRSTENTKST
The class given is functional, Trypanosoma brucei brucei strain 927/4 GUTat10.1.

Assay [14] deals with Streptococcus sp. 'group A'. The experiment in a line: Streptococcus pyogenes SK(-)GAS viability under kanamycin – luminescence, BacTiterGlo, confirmation, counter-screen for streptokinase expression inhibitor project, dose response (AID 1900). The format is functional, organism-based.
Another assay concerns the target T5, Streptokinase A (Streptococcus pyogenes serotype M1, UniProt P10520).
T5 sequence (P10520 whole entry): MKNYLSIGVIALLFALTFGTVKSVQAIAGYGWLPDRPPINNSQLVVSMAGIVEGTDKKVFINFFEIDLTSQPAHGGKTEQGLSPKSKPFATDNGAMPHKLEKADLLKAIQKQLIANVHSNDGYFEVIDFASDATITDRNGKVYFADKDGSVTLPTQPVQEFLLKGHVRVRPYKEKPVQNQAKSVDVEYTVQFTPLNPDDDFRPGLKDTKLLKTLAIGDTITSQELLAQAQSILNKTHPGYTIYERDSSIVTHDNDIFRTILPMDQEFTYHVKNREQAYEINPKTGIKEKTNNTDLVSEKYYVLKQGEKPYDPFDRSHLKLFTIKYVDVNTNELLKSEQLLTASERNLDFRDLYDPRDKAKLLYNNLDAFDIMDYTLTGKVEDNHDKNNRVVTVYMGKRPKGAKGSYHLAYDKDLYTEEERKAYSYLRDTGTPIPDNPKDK
Nature of the assay: viability-normalized secreted streptokinase activity reduction – plasminogen activation absorbance, OD405, dose response (AID 1914).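 Also: secreted streptokinase activity via plasminogen activation per viability signal from cell pellet.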 The class given is functional, Streptococcus pyogenes M1 GAS.

A short description of assay [15]: Luminescence Cell-Based Dose Retest to Confirm Inhibitors of Cancer Stem Cells. [Related pubchem assays (depositor defined):AID2717, AID2721]. The class given is functional. The settings on record: Homo sapiens.
The test system of the next assay is Streptococcus. Nature of the assay: GAS UMAA2166 growth inhibition – luminescence, BacTiterGlo, counter-screen for streptokinase expression inhibitor project, dose response (AID 1915).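 Also: potency for reduction of bacterial viability or growth.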 The class given is functional, organism-based.
Assay [16] deals with T4, Methionyl-tRNA synthetase, putative. The format is functional, Trypanosoma brucei brucei strain 927/4 GUTat10.1. The source holds these as a separate data set.
Assay [17] is described as follows: Counterscreen for inhibitors of Trypanosoma brucei methionyl tRNA synthetase (MetRS): Luminescence-based cell-based high throughput dose response assay to identify compounds that are cytotoxic to Jurkat human T lymphocyte cells. The format is functional.
A short description of assay [18]: viability loss in MITF-independent A375 cells – cell-based, CellTiter-Glo luminescence, dry powder, set 2, counter-screen for MITF inhibitor project, dose response (AID 624489).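 Also: actives are compounds lowering A375 viability meaning general cytotoxicity.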 The class given is functional. To be noted: A-375.
The nature of assay [19]: cytotoxicity in MITF-independent A375 cells – cell-based, CellTiter-Glo luminescence, dry powder, set 4, counter-screen for MITF inhibitor project, dose response (AID 624364).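 Also: A375 melanoma cells are MITF independent so this is a counter screen.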 The class given is functional. To be noted: A-375.
Assay [20] concerns the target T3, NAD-dependent protein deacylase sirtuin-5, mitochondrial. Nature of the assay: blockers of sirtuin-5 peptide desuccinylation – biochemical, fluorescence imaging, cherry-pick, set 6, dose response (AID 720597).

Activity calls are given as the source filed them.

IC50, AC50 and EC50 data for six compounds are collected here from ChEMBL document CHEMBL1201862, “PubChem BioAssay data set” (2004).

T1 sequence (P11940 whole entry, the tested form may be a part): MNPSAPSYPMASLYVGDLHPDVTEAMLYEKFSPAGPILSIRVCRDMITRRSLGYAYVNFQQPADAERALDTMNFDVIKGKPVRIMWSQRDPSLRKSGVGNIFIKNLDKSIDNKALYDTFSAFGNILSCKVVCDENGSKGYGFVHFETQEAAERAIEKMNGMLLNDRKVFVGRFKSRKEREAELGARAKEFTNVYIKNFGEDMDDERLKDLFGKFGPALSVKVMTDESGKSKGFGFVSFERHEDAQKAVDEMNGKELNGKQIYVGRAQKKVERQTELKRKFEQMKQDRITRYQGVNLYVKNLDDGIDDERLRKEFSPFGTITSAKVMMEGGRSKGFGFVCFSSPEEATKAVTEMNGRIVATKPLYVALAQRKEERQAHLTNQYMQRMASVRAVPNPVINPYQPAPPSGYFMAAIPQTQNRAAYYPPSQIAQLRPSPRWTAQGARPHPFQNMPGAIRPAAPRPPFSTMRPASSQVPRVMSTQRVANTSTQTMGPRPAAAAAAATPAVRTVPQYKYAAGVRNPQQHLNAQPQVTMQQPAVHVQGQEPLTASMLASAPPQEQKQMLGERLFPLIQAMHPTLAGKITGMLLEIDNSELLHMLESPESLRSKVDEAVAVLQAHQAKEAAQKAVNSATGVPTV
Chain of Induced myeloid leukemia cell differentiation protein Mcl-1 (Q07820 whole entry): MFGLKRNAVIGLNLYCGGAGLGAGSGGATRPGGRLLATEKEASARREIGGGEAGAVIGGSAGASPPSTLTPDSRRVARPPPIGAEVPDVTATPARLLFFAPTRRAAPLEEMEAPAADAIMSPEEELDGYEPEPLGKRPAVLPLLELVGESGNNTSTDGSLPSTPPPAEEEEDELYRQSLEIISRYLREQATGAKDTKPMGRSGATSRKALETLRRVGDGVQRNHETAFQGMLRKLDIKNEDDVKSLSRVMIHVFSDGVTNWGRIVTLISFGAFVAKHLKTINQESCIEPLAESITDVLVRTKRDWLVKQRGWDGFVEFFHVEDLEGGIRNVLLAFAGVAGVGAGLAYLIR
Chain of Cytochrome P450 2D6 (P10635 whole entry): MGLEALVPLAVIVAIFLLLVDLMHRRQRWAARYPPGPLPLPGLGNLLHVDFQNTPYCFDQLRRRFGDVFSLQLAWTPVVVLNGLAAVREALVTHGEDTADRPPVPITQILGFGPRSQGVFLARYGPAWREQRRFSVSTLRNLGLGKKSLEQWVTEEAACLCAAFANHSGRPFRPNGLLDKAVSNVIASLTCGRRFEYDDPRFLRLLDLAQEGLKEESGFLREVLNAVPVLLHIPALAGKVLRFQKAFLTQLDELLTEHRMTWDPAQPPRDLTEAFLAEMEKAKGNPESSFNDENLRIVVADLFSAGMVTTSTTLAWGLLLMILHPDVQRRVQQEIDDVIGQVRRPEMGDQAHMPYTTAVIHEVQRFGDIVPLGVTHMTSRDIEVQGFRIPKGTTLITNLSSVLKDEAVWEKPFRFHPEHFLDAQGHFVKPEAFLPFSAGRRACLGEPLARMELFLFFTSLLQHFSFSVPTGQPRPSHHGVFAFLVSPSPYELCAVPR

`COc1ccc2c3c(cccc13)N(C)N=C2C`: the IC50 in assay [1] was > 66 µM (inactive); in assay [2] it was > 66 µM (inactive); in assay [3], 1.33 µM (active); in assay [4] it was > 20 µM (inactive); in [5], 34.4 µM (active); in [6], 36.6 µM (active).

`Cn1c(C(=O)N2CCN(c3nc4ccccc4s3)CC2)cc2sccc21`: the AC50 was 3.01 µM (active) in assay [7], 8.02 µM (active) in assay [8], 16.4 µM (active) in [9] and 4.97 µM (active) in assay [10].

Regarding `CC(C)C[C@H](NS(=O)(=O)c1ccc(F)cc1F)C(=O)N1CCC[C@H]1C(=O)NCc1ccccc1`, the AC50 in assay [11] is 15.3 µM (active).

For the compound `O=C(NNC(=O)c1cc(-c2ccc(Cl)c(Cl)c2)nc2ccccc12)Nc1ccccc1`, the concentration at half-maximal activity (AC50) at Cytochrome P450 2D6 is 20 µM (inconclusive); in [15], 4.94 µM (active). For the same compound, the IC50 in assay [12] is 22.4 µM (inactive); in [13] it was 3.12 µM (active); in assay [16] it was 1.64 µM (active); in [17], 34.2 µM (inactive). For the same compound, the EC50 was 4.69 µM (active) in assay [14], > 150 µM (not active) at Streptokinase A and 13.7 µM (active) in the assay on Streptococcus.

For `C=C1C(=O)OC2C1CC/C(C)=C\CCC1(C)OC21` (stereo not drawn), the half-maximal activity concentration (AC50) in assay [18] was 43.9 µM (active); in assay [19], > 70 µM (inactive).

On to `O=C(O)CCNc1ncnc2ccccc12`, for which, in assay [20], the AC50 was > 30 µM (inactive).
